According to patent publication US8501805B2, “Substituted alpha-L-bicyclic nucleosides” (Isis Pharmaceuticals, Inc., priority 2008, dated 2013):
[αh] = substituted alpha-L-bicyclic nucleoside, publication subscript αh; [αj] = substituted alpha-L-bicyclic nucleoside, publication subscript αj; [αl] = substituted alpha-L-bicyclic nucleoside, publication subscript αl; [αm] = substituted alpha-L-bicyclic nucleoside, publication subscript αm; [αg] = code of the source, not defined here; d = 2'-deoxy (DNA)

Test: 12mer Tm study
Type: binding
Conditions: for Tm (° C.): all linkages phosphodiester; for ΔTm/mod (° C.): change in Tm per modification
From the text: All internucleoside linkages are phosphodiester and all nucleosides not followed by a subscript are 2′-deoxyribonucleosides. The nucleosides followed by a subscript are defined below.

Substance: 07/438704: 12mer GCGTTUTTTGCT, all 2′-deoxyribonucleosides, all linkages phosphodiester (DNA, all phosphodiester, methylation of C not given here) [reference compound]
- Tm (° C.): 46.7 °C
- ΔTm/mod (° C.): +0.0 °C

Substance: 07/438711: 12mer GCGTTUαlTTTGCT, all linkages phosphodiester (GCGTTUTTTGCT; sugars from the 5' end d5 [αl]1 d6, all phosphodiester, methylation of C not given here) [reference compound]
- Tm (° C.): 50.2 °C
- ΔTm/mod (° C.): +4.6 °C

Substance: 07/449244: 12mer GCGTTUαjTTTGCT, all linkages phosphodiester (GCGTTUTTTGCT; sugars from the 5' end d5 [αj]1 d6, all phosphodiester, methylation of C not given here)
- Tm (° C.): 46.7 °C
- ΔTm/mod (° C.): +1.1 °C

Substance: 07/449245: 12mer GCGTTUαjTαjTTGCT, all linkages phosphodiester (GCGTTUTTTGCT; sugars from the 5' end d5 [αj]2 d5, all phosphodiester, methylation of C not given here)
- Tm (° C.): 47.1 °C
- ΔTm/mod (° C.): +1.0 °C

Substance: 07/449246: 12mer GCGTTUαhTTTGCT, all linkages phosphodiester (GCGTTUTTTGCT; sugars from the 5' end d5 [αh]1 d6, all phosphodiester, methylation of C not given here)
- Tm (° C.): 49.0 °C
- ΔTm/mod (° C.): +3.4 °C

Substance: 07/449247: 12mer GCGTTUαhTαhTTGCT, all linkages phosphodiester (GCGTTUTTTGCT; sugars from the 5' end d5 [αh]2 d5, all phosphodiester, methylation of C not given here)
- Tm (° C.): 53.7 °C
- ΔTm/mod (° C.): +4.1 °C

Substance: 07/454306: 12mer GCGTTUαlTαlTTGCT, all linkages phosphodiester (GCGTTUTTTGCT; sugars from the 5' end d5 [αl]2 d5, all phosphodiester, methylation of C not given here) [reference compound]
- Tm (° C.): 45.6 °C
- ΔTm/mod (° C.): +4.6 °C

Substance: 07/454307: 12mer GCGTTUαmTTTGCT, all linkages phosphodiester (GCGTTUTTTGCT; sugars from the 5' end d5 [αm]1 d6, all phosphodiester, methylation of C not given here)
- Tm (° C.): 51.3 °C
- ΔTm/mod (° C.): +5.5 °C

Substance: 07/454308: 12mer GCGTTUαmTαmTTGCT, all linkages phosphodiester (GCGTTUTTTGCT; sugars from the 5' end d5 [αm]2 d5, all phosphodiester, methylation of C not given here)
- Tm (° C.): 55.2 °C
- ΔTm/mod (° C.): +4.8 °C

Substance: 07/454309: 12mer GCGTTUαgTTTGCT, all linkages phosphodiester (GCGTTUTTTGCT; sugars from the 5' end d5 [αg]1 d6, all phosphodiester, methylation of C not given here)
- Tm (° C.): 49.7 °C
- ΔTm/mod (° C.): +4.2 °C

Substance: 07/454310: 12mer GCGTTUαgTαgTTGCT, all linkages phosphodiester (GCGTTUTTTGCT; sugars from the 5' end d5 [αg]2 d5, all phosphodiester, methylation of C not given here)
- Tm (° C.): 53.6 °C
- ΔTm/mod (° C.): +4.2 °C
